Results on 34 compounds are retold here after patent US8450308B2 (Vitae Pharmaceuticals, Inc., priority 2008, dated 2013).

Molecules are shown by their SMILES.

This experiment deals with T1, truncated human beta-secretase (residues 1-458, His6-tagged at the C-terminus) (Homo sapiens, UniProt P56817).
T1 construct: truncated human beta-secretase (residues 1-458, His6-tagged at the C-terminus); His6 (C); made in house; host or cells: insect cells D. melanogaster S2 (baculovirus expression system (so in the source))
T1 sequence (P56817 22-458): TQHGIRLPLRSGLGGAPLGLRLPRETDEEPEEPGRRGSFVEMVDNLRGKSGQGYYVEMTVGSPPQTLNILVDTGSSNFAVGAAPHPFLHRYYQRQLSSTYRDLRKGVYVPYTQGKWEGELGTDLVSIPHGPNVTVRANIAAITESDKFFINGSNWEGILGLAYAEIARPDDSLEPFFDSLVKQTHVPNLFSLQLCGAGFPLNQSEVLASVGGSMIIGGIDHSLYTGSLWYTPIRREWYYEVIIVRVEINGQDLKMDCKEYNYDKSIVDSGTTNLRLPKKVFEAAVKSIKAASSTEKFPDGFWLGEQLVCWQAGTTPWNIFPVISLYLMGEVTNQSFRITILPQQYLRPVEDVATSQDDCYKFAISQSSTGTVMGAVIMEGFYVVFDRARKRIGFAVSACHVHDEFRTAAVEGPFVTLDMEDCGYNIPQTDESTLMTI
In words: BACE fluorescence quench assay. Type of experiment: biochemical. The following applies: in vitro enzyme activity, BACE fluorescence assay, pH 4.5; read-out: IC50.
With `CN1C(=O)[C@@]2(C[C@]3(CCCOC3)Oc3ccc(-c4cccc(-n5cccc5)n4)cc32)N=C1N` [Compound 424], the IC50 – broadly, the concentration that gives 50% inhibition – was 1 to 5 µM. To `CC(C)=CC(CCO)C1CC2(N=C(N)N(C)O2)c2cc(-c3cc(C#N)ccc3C)ccc2O1` (stereo not shown) [Compound 425] belongs 1 to 5 µM. Consider `CN1C(=O)[C@@]2(C[C@]3(CCCOC3)Oc3ccc(-c4cccc(Cl)n4)cc32)N=C1N` [Compound 426], for which the IC50 was 1 to 5 µM. Next, `CC(=O)c1cccc(-c2ccc3c(c2)[C@]2(C[C@@]4(CCCOC4)O3)N=C(N)N(C)C2=O)c1` [Compound 427]: 1 to 5 µM; `COc1ccc(-c2ccc3c(c2)[C@]2(C[C@]4(CCCOC4)O3)N=C(N)N(C)C2=O)cc1OC` [Compound 428]: 1 to 5 µM; `CCOC(=O)c1cccc(-c2ccc3c(c2)[C@]2(C[C@@]4(CCCOC4)O3)N=C(N)N(C)C2=O)c1` [Compound 429]: 1 to 5 µM. On to `CC(C)=CC(CCO)C1CC2(N=C(N)N(C)O2)c2cc(-c3cccc(C#N)c3F)ccc2O1` (stereo not shown) [Compound 430], for which the IC50 was 1 to 5 µM. To `CN1C(=O)C2(CC(C3CCOC(C)(C)C3)Oc3ccc(-c4ccc(F)c(F)c4)cc32)N=C1N` (stereo not shown) [Compound 431] belongs 1 to 5 µM; to `CN1C(=O)[C@@]2(C[C@]3(CCCOC3)Oc3ccc(-c4ccc5cn[nH]c5c4)cc32)N=C1N` [Compound 433], 5 to 10 µM. In the case of `CC(C)=CC(CCO)C1CC2(N=C(N)N(C)O2)c2cc(-c3cc(F)ccc3F)ccc2O1` (stereo not shown) [Compound 434], the IC50 was in the range of 5 to 10 µM. Next, `CN1C(=O)[C@@]2(C[C@@]3(CCCOC3)Oc3ccc(-c4cc(CO)ccc4F)cc32)N=C1N` [Compound 435]: 5 to 10 µM; `CC(C)=CC(CCO)C1CC2(N=C(N)N(C)O2)c2cc(-c3cccc(F)c3)ccc2O1` (stereo not shown) [Compound 436]: 5 to 10 µM.

On to `Cc1ccc(C#N)cc1-c1ccc2c(c1)[C@]1(C[C@@H](C3CCOC(C)(C)C3)O2)N=C(N)N(C)C1=O` (stereo partly shown) [Compound 437], for which the IC50 lay in the range of 5 to 10 µM. Regarding `CN1OC2(CC3(CCS(=O)(=O)CC3)Oc3ccc(-c4cccc(C#N)c4)cc32)N=C1N` (stereo not shown) [Compound 438], the IC50 was in the range of 5 to 10 µM. Consider `CN1C(=O)C2(CC3(CCCOC3)Oc3ccc(-c4cccc(-n5ccnc5)n4)cc32)N=C1N` (stereo not shown) [Compound 439], for which the IC50 is 5 to 10 µM. In the case of `Cc1cccc(-c2ccc3c(c2)[C@]2(C[C@@]4(CCCOC4)O3)N=C(N)N(C)C2=O)c1C` [Compound 440], the IC50 lay in the range of 5 to 10 µM.

As to `CC(C)=C[C@H](CCO)[C@@H]1C[C@@]2(N=C(N)N(C)O2)c2cc(-c3cc(F)cc(F)c3F)ccc2O1` [Compound 441], the IC50 lay within 5 to 10 µM. Next, `CC(C)=CC(CCO)[C@H]1C[C@@]2(N=C(N)N(C)O2)c2cc(-c3cccc(C(F)(F)F)c3)ccc2O1` (stereo partly shown) [Compound 442]: 5 to 10 µM.

With `CN1OC2(CC3(CCCC4CCCCC43)Oc3ccc(-c4cccc(C#N)c4)cc32)N=C1N` (stereo not shown) [Compound 443], the IC50 was 5 to 10 µM.

As for `CC(C)=CC(CCO)[C@@H]1C[C@@]2(N=C(N)N(C)O2)c2cc(-c3cc(F)cc(F)c3)ccc2O1` (stereo partly shown) [Compound 444], the IC50 fell in the range of 5 to 10 µM. Next, `CN1OC2(CC(C3CCOC(C)(C)C3)Oc3ccc(-c4cccc(-n5cccc5)n4)cc32)N=C1N` (stereo not shown) [Compound 445]: 5 to 10 µM. As to `CN1C(=O)[C@@]2(C[C@@]3(CCCOC3)Oc3ccc(-c4cccc(C#N)n4)cc32)N=C1N` [Compound 446], the IC50 is 5 to 10 µM.

In the case of `CN1C(=O)[C@@]2(C[C@@]3(CCCOC3)Oc3ccc(-c4cccc(Cl)n4)cc32)N=C1N` [Compound 447], the half-maximal inhibitory concentration (IC50) lay in the range of 5 to 10 µM. Consider `CN1C(=O)[C@@]2(C[C@@]3(CCCOC3)Oc3ccc(-c4ccco4)cc32)N=C1N` [Compound 448], for which the IC50 lay within 10 to 50 µM. On to `CN1C(=O)[C@@]2(C[C@@]3(CCCOC3)Oc3ccc(-c4cc(C#N)ccc4C(F)(F)F)cc32)N=C1N` [Compound 449], for which the IC50 was in the range of 10 to 50 µM. Regarding `CC(C)=CC(CCO)[C@@H]1C[C@@]2(N=C(N)N(C)O2)c2cc(-c3cccc(C(F)(F)F)c3)ccc2O1` (stereo partly shown) [Compound 450], the concentration for half-maximal inhibition (IC50) lay in the range of 10 to 50 µM.

Consider `CN1OC2(CC3(CCc4ccccc4CC3)Oc3ccc(-c4cccc(C#N)c4)cc32)N=C1N` (stereo not shown) [Compound 451], for which the IC50 is 10 to 50 µM.

`CN1C(=O)C2(CC(C3CCOC(C)(C)C3)Oc3ccc(-c4cccc(F)c4)cc32)N=C1N` (stereo not shown) [Compound 452]: the IC50 fell in the range of 10 to 50 µM. To `CN1C(=O)C2(C[C@H]([C@@H]3CCOC(C)(C)C3)Oc3ccc(-c4cccc(C#N)c4)cc32)N=C1N` (stereo partly shown) [Compound 453] belongs 10 to 50 µM; to `CN1OC2(CC3(CCCOC3)Oc3ccc(C#Cc4ccccc4)cc32)N=C1N` (stereo not shown) [Compound 454, 2″-methyl-6-(phenylethynyl)-2″H-spiro[spiro[chroman-2,1′-(3-oxacyclohexane)]-4,5′-[1,2,4]oxadiazol]-3″-amine], 10 to 50 µM; to `CN1OCC2(CC3(CCCOC3)Oc3ccc(-c4cccc(C#N)c4)cc32)N=C1N` (stereo not shown) [Compound 455, 3-(spiro[spiro[chroman-2,1′-(3-oxacyclohexane)]-4,5′-(3-amino-2-methyl-2,6-dihydro-[1,2,4]oxadiazine)]-6-yl)benzonitrile], 10 to 50 µM. As for `CC(C)=CC(CCO)C1CC2(N=C(N)N(C)O2)c2cc(-c3ccc(F)c(F)c3)ccc2O1` (stereo not shown) [Compound 456], the IC50 fell in the range of 10 to 50 µM. To `CN1C(=O)[C@@]2(C[C@@]3(CCCOC3)Oc3ccc(-c4ccc5cn[nH]c5c4)cc32)N=C1N` [Compound 457] belongs 10 to 50 µM.

For the compound `COc1ccc(-c2ccc3c(c2)[C@]2(C[C@@]4(CCCOC4)O3)N=C(N)N(C)C2=O)cc1OC` [Compound 458], the IC50 fell in the range of 10 to 50 µM.
